Results published in patent US20170217982A1, “Compound isolated from Pseudolysimachion rotundum var. subintegrum, the composition comprising the same for treating allergic disease, inflammatory disease, asthma or chronic obstructive pulmonary disease and the use thereof” (YUNGJIN PHARMACEUTICAL CO., LTD, priority 2014, published 2017).
Where “and” joins values, the source holds several entries; their conditions need not be identical. Equal values may be shown once.

Columns and labels:
[1] = test system: asthma-induced animal model (OVA); experiment: Anti-asthma activity in OVA-sensitized/challenged mouse model; type: in vivo, BALB/c mice; settings: OVA asthma mice
Protocol: In order to determine the anti-asthma activity of test sample in asthma-induced animal model, following test was performed by the method disclosed in the literature (Shin, I. S. et al., Food Chem. Toxicol., 2013, 62, 506-513)
Specific pathogen-free female BALB/c mice (about 20 g), aged 6 weeks, which were routinely screened serologically for relevant respiratory pathogens, were purchased from Samtako Co. (Seoul, Korea) and acclimated with the experimental environment under the condition controlling the temperature of 22±2° C., and relative humidity of 55±15%, at light/dark cycle for 1 week prior to experiment.
Briefly, mice were sensitized by intraperitoneal injection of 20 μg OVA (Ovalbumin; A5503, Sigma, St. Louis, Mo.), which was emulsified in 2 mg aluminum hydroxide (A8222, Sigma-Aldrich, MO. USA) in 200 μl of PBS buffer (pH 7.4), biweekly. The mice were challenged through the airways with OVA (1% in PBS) for 30 min using an ultrasonic nebulizer (NE-U12; Omron Corp., Tokyo, Japan) from the 21st day to 23rd day after the initial sensitization. 24 hrs after the antigen treatment, the airway hyperresponsiveness was determined and the mice were sacrificed 48 hrs after the last challenge. The mice were sacrificed with an overdose of pentobarbital (50 mg/kg, Entobal®, Hanil, Korea) 48 h after the last challenge, and a tracheotomy was performed. After 1.4 ml of physiological saline solution (PBS) was instilled into the lungs, bronchoalveolar lavage fluid (BALF) was obtained by aspiration three times via tracheal cannulation.
The groups were divided into several groups, i.e., (a) normal control group(NC): the groups treated or not-treated with OVA; (b) asthma-induced group(OVA): the groups treated with OVA to induce asthma; and (c) comparative group: the groups treated with positive control group (M30, montelukast; 30 mg/kg, PO, Sigma-Aldrich Co. Ltd., SML-0101+OVA) and (d) test sample group: the groups treated with KS534 compound (30 mg/kg, PO, Sigma-Aldrich Co. Ltd., SML-0101+OVA).
The test group consists of 7 mice for each group and various concentrations of the test sample were orally administrated to the mice from 21st to 23rd day after ^1st OVA treatment.
All the result obtained from various experiments was recorded as mean±SD (standard deviation), and the comparison between each group was determined using by one-way ANOVA test using by SPSS 10.0 program. The statistic significance between each group was determined according to Dunnett's multiple comparison tests as a post-hoc test). The result was expressed as P values: <0.05 (*) as statistically significant. […]
BALF was loaded onto a slide and centrifuged to fix the cells onto the slide using a Cellspin machine (Cyto12.5+clip5, Hanil Science Industrial, Korea). The cells were stained by Diff-Quick® Stain reagents (Sysmex, Cat No. 38721, Switzerland) according to the manufacturer's instructions and the number of inflammatory cells in each sample was counted by microscope (×400).
In order to confirm the inhibition effect of test samples on the level of Th2 cytokines (IL-4, IL-5 and IL-13) in bronchoalveolar lavage fluid (BALF), the level of Th2 cytokines (IL-4, IL-5 and IL-13) in bronchoalveolar lavage fluid (BALF) was determined using by ELISA kit (VersaMax, Molecular Devices, USA) specifically reacting with each cytokine according to the manufacture's manual. […]

MUC5AC = experiment: Inhibition of TNF-alpha induced MUC5AC mRNA expression in H292 cells (qRT-PCR); type: cell-based, human; settings: TNF-α 20 ng/ml
Protocol: In order to determine the inhibitory effect on the expression of MUC5AC induced by TNF-alpha in H292 cell line, following test was performed:
The isolation of total RNA, cDNA synthesis and quantitative real-time PCR were performed by the method disclosed in the literature (Kim et al., J. Cell. Biochem. 2008, 104, 1906-1917).
In summary, total RNA was isolated using by TRIzol reagent (155596-026, Life Technologies) and the first strand cDNA was synthesized using by enzyme (Omniscript Reverse Transcriptase, 205113, Qiagen, Calif.). The quantitative real-time PCR amplification was performed using by apparatus 1 (S1000 Thermal cycler, Bio-rad, USA) and apparatus 2 (2× Greenstar master mix, Bioneer, Korea) according to the manufacture's manual.
Specifically, the reproduced amount of TNF-alpha induced MUC5AC was determined by Real-time polymerase chain reaction (real-time PCR), quantitative real time polymerase chain reaction (qPCR) and MUC5AC immunoassay. H292 cells were inoculated into 48 well plates in a concentration of 2×10^4 cells/well to adhere for 24 hours and the culture medium was replaced with new 0.1% FBS containing medium to culture for 24 hours. […]
In order to extract total RNA, RNA was extracted using by Trizol B (Invitrogen) and cDNA was synthesized using by Omniscript RT kit (Qiagen, GmbH, Hilden, Germany) after the quantification.

SMILES: O=C(CO)O[C@@H]1O[C@@H]2C[C@H]3[C@H](OC(=O)c4ccc(O)c(O)c4)[C@@H](Cl)[C@@](O)(CO2)[C@@H]13 [KS-534, (3R,5S,5aS,6R,7S,8R,8aS)-8-chloro-8a-hydroxy-5-(2-hydroxyacetoxy) hexahydro-1H-3,6-methanocyclopenta[e][1,3]dioxepin-7-yl3,4-dihydroxybenzoate]
- level of Th2 cytokines (IL-4, IL-5 and IL-13) in BALF ([1]; 30 mg/kg PO, ELISA, vs OVA group (FIG. 6)): significantly reduced
- level of IgE and OVA-specific IgE in blood serum ([1]; 30 mg/kg PO, ELISA, vs OVA group (FIG. 7)): significantly reduced
- invasion of the inflamed cells in lung tissue (H&E histology) ([1]; 30 mg/kg PO, vs OVA group (FIG. 8)): significantly reduced
- mucosal secretion from the goblet cell of bronchial epithelial cells in lung tissue (PAS) ([1]; 30 mg/kg PO, vs OVA group (FIG. 9)): significantly reduced
- total number of eosinophil and inflammatory cells in BALF ([1]; oral, vs OVA group (FIG. 5)): effectively inhibited
- Expressed level of MUC5AC mRNA (Relative % comparing with that in TNF-alpha treatment group) (MUC5AC; 10 μM): 58.47% and 58.47 ± 18.50%
- Inhibitory ratio (%) of MUC5AC mRNA expression (MUC5AC; 10 μm): 41.52%
